# Test results taken from patent publication US20040258668A1 (priority 2001, published 2004).
# Like-named read-outs stand apart in the source and are kept apart here.
# Columns and labels:
# [1] = tested on: Sendai virus (SeV) vector SeV18+SEAP/ΔF-GFP; test: HA activity (virion formation) in culture media of SeV-infected LLC-MK2 cells; settings: for SeV transcription and replication (HA activity): agents added two days after infection, SeV18+SEAP/ΔF-GFP or SeV18+/ΔF-GFP, MOI=3; for SeV transcription and replication with NO-associated agents: agent added two days after infection
# Description: (§1) LLC-MK2 (monkey kidney-derived cells) were seeded into 6-well plates at a concentration of 5×10^5 cells/well, and then cultured in MEM (Gibco-BRL, Rockville, Md.) media containing 10% fetal bovine serum (FBS: BioWhittaker, Walkersville, Md.) at 37° C. for 24 hours in a 5% CO2 incubator. Cells were washed with PBS and infected with F-deleted SeV encoding secretion-type alkaline phosphatase (SEAP)) and green fluorescence protein (GFP) genes (SeV18+SEAP/ΔF-GFP: FIG. 1) at MOI=3. […] After infection, cell culture was continued in MEM media without serum. […] Media from each culture was collected and subsequently replaced with fresh media containing the same content every two days. Heme agglutination activity (HA activity) was measured as an indicator of virion formation; lactose dehydrogenase (LDH) quantification was measured as an indicator of cell damage; and SEAP activity was measured as an indicator of the expression level of genes carried on the vector.
# (§2) HA activity was measured using the method described by Kato et al., (Kato, A. et al. , Genes Cells 1, 569-579 (1996)). That is, virus-containing media was subjected to two-fold serial dilution in a 96 round bottom well plate, such that each well contained 50 ul samples. A 50 ul solution of preserved chicken blood (COSMO BIO Co., Ltd., Tokyo, Japan), diluted to 1% with PBS, was added to each well and mixed. The mixture was incubated at 4° C. for one hour. Agglutination of red blood cells was observed, and HA activity was calculated by selecting the highest virus dilution in which agglutination was still observed. Additionally, 1 HA U was considered to be equal to 1×10^6 viruses, and values were shown as a number of viruses. […] LDH quantification was conducted using a Cytotoxicity Detection Kit (Roche, Basel, Switzerland) according to the methodin the kit. […] SEAP activities were measured using a Reporter Assay Kit-SEAP (TOYOBO, Osaka, Japan) according to kit method.
# (§3) That is, LLC-MK2 was plated in a 6-well plate at a concentration of 5×10^5 cells/well, and incubated in MEM media containing 10% fetal bovine serum at 37° C. for 24 hours in a 5% CO2 incubator. […] After infection, culture was continued in MEM media without serum. […] Cultured media was recovered every two days, and at this time fresh media, either with or without 5 mM aspirin, was added. The cultures were treated with aspirin for either 0, 2, 4, 6, or 8 days, and then examined. The recovered culture media was analyzed for HA activity, LDH quantification, and SEAP activity. GFP expression and cell damage were also periodically examined using fluorescence microscopy.
# (§4) The experiment was conducted as described in Example 1: LLC-MK2 was plated onto a 6-well plate at a concentration of 5×10^5 cells/well, and incubated in MEM media containing 10% fetal bovine serum at 37° C. for 24 hours in a 5% CO2 incubator. […] After infection, cells were cultured in MEM media without serum for two days, then cultured in MEM media (without serum) containing agents at the recorded concentrations. Cultured media was collected every two days and replaced with a same volume of fresh media. HA activity analysis and LDH quantitative analysis were performed on recovered culture media. GFP expression and cell damage were also periodically examined using fluorescence microscopy.
# [2] = tested on: LLC-MK2 cells infected with SeV18+SEAP/ΔF-GFP; test: LDH release (cell damage) from SeV-infected LLC-MK2 cells; settings: for cell damage (LDH release): agents added two days after infection, at the concentration tested
# Description: as §1, §2, §3, §4
# Cytomegarovirus = settings: Albrecht et al. (1987); cited from earlier work
# [3] = tested on: SEAP gene carried on SeV18+SEAP/ΔF-GFP
# Description: LLC-MK2 (monkey kidney-derived cells) were seeded into 6-well plates at a concentration of 5×10^5 cells/well, and then cultured in MEM (Gibco-BRL, Rockville, Md.) media containing 10% fetal bovine serum (FBS: BioWhittaker, Walkersville, Md.) at 37° C. for 24 hours in a 5% CO2 incubator. Cells were washed with PBS and infected with F-deleted SeV encoding secretion-type alkaline phosphatase (SEAP)) and green fluorescence protein (GFP) genes (SeV18+SEAP/ΔF-GFP: FIG. 1) at MOI=3. […] After infection, cell culture was continued in MEM media without serum. Two days after infection, the media was replaced with MEM media (without serum) containing 0.625, 1.25, 2.5, and 5 mM of aspirin, or no aspirin. Media from each culture was collected and subsequently replaced with fresh media containing the same content every two days.
# SEAP activities were measured using a Reporter Assay Kit-SEAP (TOYOBO, Osaka, Japan) according to kit method.
# [4] = tested on: Vesicular Stomatitis virus (VSV); settings: Chen et al., Virology 276 (2000); cited from earlier work
# [5] = Aspirin toxicity (LD50, estimated toxicity limit); assay type: in vivo; settings: ⅙ of LD50
# [6] = tested on: LLC-MK2 cells infected with SeV18+SEAP/ΔF-GFP; test: GFP expression and cell damage by fluorescence microscopy; settings: 5 mM aspirin
# Description: LLC-MK2 (monkey kidney-derived cells) were seeded into 6-well plates at a concentration of 5×10^5 cells/well, and then cultured in MEM (Gibco-BRL, Rockville, Md.) media containing 10% fetal bovine serum (FBS: BioWhittaker, Walkersville, Md.) at 37° C. for 24 hours in a 5% CO2 incubator. Cells were washed with PBS and infected with F-deleted SeV encoding secretion-type alkaline phosphatase (SEAP)) and green fluorescence protein (GFP) genes (SeV18+SEAP/ΔF-GFP: FIG. 1) at MOI=3. […] After infection, cell culture was continued in MEM media without serum. Two days after infection, the media was replaced with MEM media (without serum) containing 0.625, 1.25, 2.5, and 5 mM of aspirin, or no aspirin. […] Heme agglutination activity (HA activity) was measured as an indicator of virion formation; lactose dehydrogenase (LDH) quantification was measured as an indicator of cell damage; and SEAP activity was measured as an indicator of the expression level of genes carried on the vector.
# GFP expression level and cell damage were also periodically observed using fluorescence microscopy.
# That is, LLC-MK2 was plated in a 6-well plate at a concentration of 5×10^5 cells/well, and incubated in MEM media containing 10% fetal bovine serum at 37° C. for 24 hours in a 5% CO2 incubator. […] The recovered culture media was analyzed for HA activity, LDH quantification, and SEAP activity. […]
# [7] = 5 mM aspirin, regardless of length of treatment
# [8] = 0.625-5 mM aspirin added two days after infection
smiles,measurement,setting,value
Cc1cccc(Nc2ccccc2C(=O)O)c1C [Mefenamic acid],SeV transcription and replication (HA activity),[1],suppressed SeV transcription and replication
same,cell damage (LDH release),[2],enhanced cell damage
COc1ccc(Cc2nccc3cc(OC)c(OC)cc23)cc1OC [Papaverin],SeV transcription and replication (HA activity),[1],suppressed SeV transcription and replication
same,cell damage (LDH release),[2],enhanced cell damage
same,Cytomegarovirus multiplication,Cytomegarovirus,suppress Cytomegarovirus multiplication
"COc1ccc2c(c1)c(CC(=O)O)c(C)n2C(=O)c1ccc(Cl)cc1 [indomethacin, Indomethacin]",SeV transcription and replication (HA activity),[1],suppressed SeV transcription and replication
same,cell damage (LDH release),[2],only moderately reduced cell damage
O=C(NCCO[N+](=O)[O-])c1cccnc1 [nicorandil],SeV transcription and replication with NO-associated agents,[1],did not significantly suppress transcription and replication
O=[N+]([O-])O[C@H]1CO[C@H]2[C@@H]1OC[C@H]2O[N+](=O)[O-] [isosorbide dinitrate],SeV transcription and replication with NO-associated agents,[1],did not significantly suppress transcription and replication
"CC(=O)Oc1ccccc1C(=O)O [aspirin, acetylsalicylic acid]",HA activity (virion formation),"[1]; 5 mM aspirin added two days after infection, MOI=3, LLC-MK2",suppressed the increase in HA activity
same,time after end of aspirin treatment until HA activity and virion formation increase,[1]; [7],two
same,HA activity during aspirin treatment,"[1]; 5 mM aspirin, treatment 0, 2, 4, 6 or 8 days",increase in HA activity was low during aspirin treatment
same,SeV transcription and replication (HA activity),[1],suppressed SeV transcription and replication
same,SEAP activity,[3]; 5 mM aspirin,most significant decrease in activity
same,SEAP activity,[3]; [8],concentration-dependent decrease in SEAP activity
same,cell damage (LDH),[2]; 5 mM aspirin,Almost no cell damage was observed
same,time after end of aspirin treatment until LDH increases,[2]; [7],four
same,LDH release,[2]; [8],concentration-dependent decrease in LDH release
same,cell damage (LDH release),[2],reducing cytotoxicity
same,multiplication of VSV,[4],suppressed the multiplication of the Vesicular Stomatitis virus (VSV)
same,estimated toxicity limit,[5],300 mg/kg
same,nature of suppression of SeV transcription and replication,[6]; after withdrawal,transient
same,GFP expression and cell damage during aspirin treatment,[6]; treatment 0-8 days,GFP expression is low and cell damage is not observed
CC(C(=O)O)c1cccc(C(=O)c2ccccc2)c1 (centres unmarked) [Ketoprofen],SeV transcription and replication (HA activity),[1],suppressed SeV transcription and replication
same,cell damage (LDH release),[2],reduced cell damage
O=C(O)Cc1ccccc1Nc1c(Cl)cccc1Cl [Diclofenac sodium],SeV transcription and replication (HA activity),[1],suppressed SeV transcription and replication
same,cell damage (LDH release),[2],enhanced cell damage
CC(C(=O)O)c1ccc(-c2ccccc2)c(F)c1 (centres unmarked) [Flurbiprofen],SeV transcription and replication (HA activity),[1],suppressed SeV transcription and replication
same,cell damage (LDH release),[2],only moderately reduced cell damage
